Results from patent US11261189B2, “Substituted 2,4 diamino-quinoline as new medicament for fibrosis, autophagy and cathepsins B (CTSB), L (CTSL) and D (CTSD) related diseases” (Genoscience Pharma, priority 2018, dated 2022).

How the values were obtained:
[1] = tested on: autophagy flux (LC3-II) in RBE cell line; assay: Autophagy flux, LC3-II immunoblot with/without Bafilomycin, RBE cell line; format: cell-based; conditions: 24 hours of treatment
Experimental: The capacity of compound 2-2 to modulate the cellular autophagy processes was also evaluated in the intrahepatic cholangiocarcinoma cell line RBE.
The RBE cell line was maintained in RPMI (Roswell Park Memorial Institute) 1640 (Cat #L0498-500, Dutscher) containing 1% penicillin-streptomycin (Cat #P06-07100, Dutscher) and 10% FBS (Cat #SV30160.03C, Dutscher). RBE Cells line were cultured at 37° C. with 5% CO2.
The day before the experiment, 6-well plates with 125,000 cells in 1.8 mL of medium per well were prepared.
Compound 2-2 was dissolved with filtrated DMSO to make a 10 mM stock solution and serial working solutions (10× solutions) at 9 μM, 18 μM and 36 μM were prepared with the diluent (=culture medium with 0.12% DMSO) to maintain a constant percentage of DMSO. Bafilomycin [CAS 88899-55-2] (Cat #B1793-10UG, Sigma) was dissolved with DMSO to make a 160.6 μM stock solution and a working solution (200× solution) was prepared with the culture medium at 20.1 μM. A “Baf diluent” solution corresponding to the dilution of DMSO in the Bafilomycin 200× solution (culture medium with 12.5% DMSO) is also prepared. […]
After 24 hours of cell line treatment, the medium was removed from each well. […] Total protein concentration was assessed using the BCA reagent (Cat #23227, ThermoFischer) and cellular lysates were stored at −80° C. until western-blot analysis. […]

[2] = tested on: diethyl nitrosamine (DEN) cirrhotic rat model of liver fibrosis; assay: DEN induced cirrhosis in rats, study 2: Sirius red quantification of liver fibrosis; format: in vivo
Experimental: A second in vivo experiment, with the same diethyl nitrosamine (DEN) cirrhotic rat animal model of liver fibrosis, was performed including compound 2-2 (base form of compound 2-3) with discontinued oral dosing schedule and compound 5-3 with daily oral exposure. Compounds 2-2 and 5-3 were administered p.o. by gavage (oral gavage) once daily during 7 weeks.
Rats were treated with DEN for 13 weeks (intra-peritoneal injections (i.p.) of 50 mg/kg/week) and then treated according to the Table 10 dosage schedule during 7 weeks. At the end of the study, all animals were sacrificed using CO2 and rat livers were collected for analysis. The quantification of the liver fibrotic tissue was evaluated by Sirius red staining of rat liver sections.
Group 1 contained 6 animals which were daily dosed (q.d.) by oral gavage (per os, p.o.) with the vehicle during 7 weeks.
Group 2 contained 8 animals and the corresponding animals were daily dosed (q.d.) by oral gavage (per os, p.o.) with compound 2-2 during 4 weeks at 20 mg/kg/day and then during 3 weeks at 20 mg/kg every 2 days (q.o.d.: quaque altera die, one day treated, on day untreated).
Group 3 contained 8 animals and the corresponding animals were daily dosed (q.d.) by oral gavage (per os, p.o.) with compound 2-2 during 3 weeks at 20 mg/kg/day, then 2 weeks of treatment free period, and were then daily dosed (q.d.) by oral gavage (per os, p.o.) with compound 2-2 during 2 weeks at 20 mg/kg/day.
Group 4 contained 8 animals and the corresponding animals were daily dosed (q.d.) by oral gavage (per os, p.o.) with compound 5-3 during 4 weeks at 20 mg/kg/day, and were then daily dosed (q.d.) by oral gavage (per os, p.o.) with compound 5-3 during 3 weeks at 15 mg/kg/day.
Compound 2-2 and 5-3 were formulated in water for injection acidified with hydrochloric acid to pH 4.

CC(C)(C)NC1CCN(c2cc(NCc3ccc(Cl)cc3)nc3ccccc23)CC1 [2-2, 2-(4-chlorobenzylamino)-4-(4-tert-butylaminopiperidin-1-yl)-quinoline]
accumulation of the LC3-II form [1]: significantly induced a dose-dependent accumulation of the LC3-II form | autophagic flux (LC3-II Baf+/Baf− ratio) [1]: induced an inhibition of the autophagic flux | reduction of the level of collagen fibers deposition (Sirius red) compared to the control group ([2]; group 2 (20 qd/qod): 20 mg/kg p.o. q.d. 4 weeks then q.o.d. 3 weeks, after 13 weeks DEN, p=0.04): 23% | reduction of the level of collagen fibers deposition (Sirius red) compared to the control group ([2]; group 3 (20 3WON/2WOFF/2WON): 20 mg/kg p.o. q.d. 3 weeks, 2 weeks off, q.d. 2 weeks, p=0.01): 29%
